According to US20250262209A1, “TREATMENT OF GASTROINTESTINAL DISEASES” (Aclipse Two, Inc., priority 2022, published 2025):

How the values were obtained:
[1] = tested on: colon of DSS-induced IBD model mice; test: Colon histology (H&E score, PAS goblet cells) in the DSS-induced IBD model; format: in vivo; conditions: vs model
Protocol: H&E staining: Colon sections were cut at 4 μm in thickness, dried in an oven for 1 hour and stained with H&E solution with our standard protocol. Briefly, the sections were stained with hematoxylin solution for 90 seconds. Then stain in eosin solution for 30 seconds. Then dehydrated and coverslipped for the subsequent image analysis. H&E stained images was scanned using LEICA Aperio® GT450. The severity of inflammatory cell infiltration and tissue damage were semi-quantitatively evaluated according to pathology score criteria in Table 7.
PAS staining: Colon sections were cut at 4 μm in thickness, dried in an oven for 1 hour and stained with PAS kit (Gefan #M035) with our standard protocol. Briefly, the sections were stained with periodic acid working solution for 8 minutes. Then wash with distilled water for 5 minutes, three times. Stain in Schiff solution for 10 minutes. Transform to distilled water for 5 minutes, three times. Then dehydrated and coverslipped for the subsequent image analysis.
The total length of the colon was measured by a ruler and then was divided into 3 segments, 100 microns in the middle of each segment was taken out for goblet cell calculation. In each 100 microns of colon tissue, the number of goblet cells was calculated, then the average number of goblet cells from three parts was used for next analysis.
In vivo animal data were presented as mean±SEM. Statistical analysis was performed by one-way ANOVA followed by Dunnett's multiple comparison. […] The difference was considered significance when p<0.05.

[2] = tested on: monocytes from PBMC differentiated into M2 macrophage; test: M2 macrophage differentiation assay; format: cell-based, human
Source text: The purpose of this study was to evaluate the effects of lobeglitazone and other thiazolidinediones on M2 macrophage differentiation. The test articles and vehicles used in this study were lobeglitazone sulfate, pioglitazone HCl, and rosiglitazone.
M2 macrophage differentiation assay timeline was as follows in Table 10.
• (1) Isolate monocytes from PBMC using StemCell® monocyte isolation kit • (2) Count cell and adjust the cell density to 0.5×10^6 cells/ml with fresh complete differentiation medium. Add 5 μL M-CSF stock ([…]) to each 5 ml cell mixture. • (3) Seed isolated monocyte 100 μL per well on 96-well plate. • (4) Add test articles as the plate map using D300e (final concentration in μM). • (5) Differentiate the monocyte to macrophage in the presence of M-CSF to […] for 4 days. • (6) On day 4, add additional medium containing M-CSF. • (7) Add test compounds using D300e (final volume=[…]). • (8) On day 6, add IL-4 at 5× final concentration (IL-4 stock 0.1 mg/ml: dilute 10 μl stock into 10 ml medium for 100 ng/ml. Add 50 μl 100 ng/ml IL-4 to each well containing 200 μL medium to reach 20 ng/ml). • (9) On day 8, spin down the plates at 300×g for 5 min and collect the supernatant for cytokine quantification using MSD. • (10) M2 associated macrophage cytokines of interest are listed below in Table 12.
• (11) Collect cells for flow analysis of viability/CD11c/CD163/CD206.
Flow cytometry and surface marker CD163, CD11c, and CD206 were applied to characterize M2 repolarization. No stain and all stain with surface marker antibody to confirm the optimization of gating strategy.

Which results are given for `COc1ccc(Oc2cc(N(C)CCOc3ccc(CC4SC(=O)NC4=O)cc3)ncn2)cc1` (stereo not drawn) [lobeglitazone, 5-(4-(2-((6-(4-Methoxyphenoxy)pyrimidin-4-yl)(methyl)amino)ethoxy)benzyl)thiazolidine-2,4-dione]?
H&E total score (inflammation/tissue damage) ([1]; 0.36 mg/kg PO QD 10 days): led to decrease; number of goblet cells (PAS staining) ([1]; 0.36 mg/kg PO QD 10 days): trended to increase; H&E total score (inflammation/tissue damage) ([1]; 1.20 mg/kg PO QD 10 days): led to decrease; number of goblet cells (PAS staining) ([1]; 1.20 mg/kg PO QD 10 days): trended to increase; H&E total score (inflammation/tissue damage) ([1]; 3.61 mg/kg PO QD 10 days): led to decrease; number of goblet cells (PAS staining) ([1]; 3.61 mg/kg PO QD 10 days): did not change; concentration at which M2 repolarization was promoted (M2 macrophage surface markers, flow cytometry) ([2]; CD163, CD11c, CD206, donor 1 and 2): ~0.025 UM; Eotaxin-2 expression ([2]; cytokine analysis (MSD), donor 1): remarkable promotion; MDC expression ([2]; cytokine analysis (MSD), donor 3): remarkable promotion
